Tested on: Phakopsora pachyrhizi
Experiment: Protective control of soy bean rust on soy beans (Phakpa P1), green house
Assay type: in vivo, Phakopsora pachyrhizi on soy bean seedlings
Settings: 300 ppm active substance, sprayed 1 day before inoculation, assessed after fourteen days; untreated plants 90% infected
Experimental: The spray solutions were prepared in several steps:
The stock solution were prepared: a mixture of acetone and/or dimethylsulfoxide and the wetting agent/emulsifier Wettol, which is based on ethoxylated alkylphenoles, in a relation (volume) solvent-emulsifier of 99 to 1 was added to 25 mg of the compound to give a total of 5 ml. Water was then added to total volume of 100 ml. This stock solution was diluted with the described solvent-emulsifier-water mixture to the given concentration. 1. Protective control of soy bean rust on soy beans caused by Phakopsora pachyrhizi (Phakpa P1)
Leaves of pot-grown soy bean seedlings were sprayed to run-off with an aqueous suspension, containing the concentration of active ingredient or their mixture as described below. The plants were allowed to air-dry. The trial plants were cultivated for 1 day in a greenhouse chamber at 23-27° C. and a relative humidity between 60 and 80%.Then the plants were inoculated with spores of Phakopsora pachyrhizi. To ensure the success the artificial inoculation, the plants were transferred to a humid chamber with a relative humidity of about 95% and 20 to 24 C for 24 h. The trial plants were cultivated for fourteen days in a greenhouse chamber at 23-27° C. and a relative humidity between 60 and 80%. The extent of fungal attack on the leaves was visually assessed as % diseased leaf area.

CC(O)(Cn1cncn1)c1ccc(Oc2ccc(Cl)cc2Cl)cc1Cl (stereo not shown) [I-1, 2-[2-chloro-4-(2,4-dichlorophenoxy)phenyl]-1-(1,2,4-triazol-1-yl)propan-2-ol]
infection (extent of fungal attack, % diseased leaf area): 10%

Reference: US9137996B2, “Fungicidal alkyl- and aryl-substituted 2[-2-chloro-4-(dihalo-phenoxy)-phenyl]-1-[1,2,4]triazol-1-yl-ethanol compounds” (BASF SE, priority 2011, dated 2015)
